Data taken from paper PMC10298530, “Synthesis and Anticancer Activity of A-Ring-Modified Derivatives of Dihydrobetulin” (International Journal of Molecular Sciences, 2023).
Several values for one entry are separate records, joined by “and”; a condition that tells them apart may be missing. Equal values may be shown once. Read-outs that look alike come from different tables or passages of the source.

Legend:
HEK293 = assay: MTT cell viability assay, HEK293; assay type: cell-based; conditions: Homo sapiens
From the text: (§1) Blokhin National Medical Research Center of Oncology (the Ministry of Health of the Russian Federation, Moscow).

MCF-7 = assay: MTT cell viability assay, MCF-7; assay type: cell-based, human; conditions: Homo sapiens, MCF7
From the text: as §1

HCT116 = assay: MTT cell viability assay, HCT116; assay type: cell-based, human; conditions: Homo sapiens, HCT-116; HCT116, MTT, 72 h of treatment; read-out: IC50 Values (Mean ± SD)
From the text: as §1

RD TE32 = assay: MTT cell viability assay, RD TE32; assay type: cell-based, human; conditions: Homo sapiens
From the text: as §1

MS = assay: MTT cell viability assay, MS; assay type: cell-based, human; conditions: Homo sapiens;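 as to IC50 (mean ± SD): MS is a melanocyte cell line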
From the text: as §1

PC-3 = assay: MTT cell viability assay, PC-3; assay type: cell-based, human; conditions: Homo sapiens; PC-3, MTT, 72 h of treatment; read-out: IC50 Values (Mean ± SD)
From the text: as §1

HEpG2 = assay: MTT cell viability assay, HEpG2; assay type: cell-based, human; conditions: Homo sapiens
From the text: as §1

HBL-100 = assay: MTT cell viability assay, HBL-100; assay type: cell-based, human; conditions: Homo sapiens
Description: (§2) The cells were cultured in a humidified CO2 incubator (model 460-CE; Thermo Fisher Scientific, Waltham, MA, USA) at +37 °C and 5% CO2.
(§3) The percentage of the viable cells was calculated according to the following equation: cell viability (%) = 100 × (mean absorbance in the treatment group/mean absorbance in the control group). The results were expressed pictorially using Prism 6.0 (GraphPad Software, Boston, MA, USA).

HBL-100/Dox = assay: MTT cell viability assay, HBL-100/Dox; assay type: cell-based, human; conditions: Homo sapiens
Description: as §2, §3

HBL-100/Dox cells [1] = assay: Combined action of compounds, MTT assay on HBL-100/Dox cells; assay type: cell-based, human; conditions: 72 h, with 30 μM verapamil
From the text: The results were expressed pictorially using Prism 6.0 (GraphPad Software, Boston, MA, USA).

HBL-100 cells [2] = assay: Cell cycle analysis (DAPI, flow cytometry), HBL-100; assay type: cell-based, human; conditions: for Cell cycle of HBL-100, S-phase: dose = IC50
Description: (§4) The cells were trypsinized and rinsed with the growth medium. Then, the cells were harvested by centrifugation at 500× g for 3 min, and the supernatant was discarded. The cells were washed with PBS (PanEco, Moscow, Russia) twice and centrifuged under similar conditions. The cells were resuspended in 500 μL of PBS, put into centrifuge tubes and fixed by adding 4.5 mL of 70% ethanol dropwise (on ice). The samples were fixed at 4 °C. Overnight, the fixed cells were centrifugally collected (1000× g, 4 °C, 5 min) and washed again with PBS. The cells were finally resuspended in DAPI with 0.1% Triton X-100 in PBS solution (10 μg/mL, Sigma–Aldrich, St. Louis, MO, USA), and stained for 30 min at room temperature in darkness. For each sample, at least 50,000 cells were analyzed using the CytoFlex S flow cytometer (Beckman Coulter, Brea, CA, USA). Cell cycle populations were quantified from DNA histograms with the FlowJo software (ver. X 10.0.7r2, FlowJo Software, San Jose, CA, USA).

HBL-100/Dox cells [3] = assay: Cell cycle analysis (DAPI, flow cytometry), HBL-100/Dox; assay type: cell-based, human; conditions: HBL-100/Dox (resistant) cells, 12-24 h, IC50
Description: as §4

HBL-100 cells [4] = assay: Annexin V-FITC/PI assay, HBL-100; assay type: cell-based, human; conditions: 16 h, dose IC50
Description: (§5) Briefly, after exposing the cells to the tested and control compounds for 16 h, the cells were detached with accutase (HiMedia Laboratories, Maharashtra, India) and washed with cold PBS. Then, the cells were re-suspended in 100 μL of 1 × Binding Buffer at concentration 1 × 10^6 cells/mL and incubated with 5 μL Annexin V-FITC and 5 μL propidium iodide (PI) for 15 min at room temperature in darkness. After incubation, 400 μL of 1 × Binding Buffer was added to each tube. The samples were analyzed by flow cytometry (CytoFlex S, Beckman Coulter, Brea, CA, USA) within 1 h of staining, and the findings were analyzed using a trial version of the Kaluza software (Beckman Coulter, Brea, CA, USA).

HBL-100/Dox cells [5] = assay: Annexin V-FITC/PI assay, HBL-100/Dox; assay type: cell-based, human; conditions: 16 h, dose IC50
Description: as §5

HBL-100 cells [6] = assay: Hoechst 33342 / TMRE fluorescent microscopy, HBL-100; assay type: cell-based, human; conditions: Hoechst 33342, 16 h, IC50 values (MK 1.0 µM)
Description: (§6) The DNA marker, termed Hoechst 33342 Ready Flow Reagent, was used as a stock solution (Invitrogen, ThermoFisher Scientific, USA). The mitochondrial marker, LumiTracker Mito TMRE (tetramethylrhodamine, ethyl ester; Lumiprobe, Moscow, Russia), was dissolved in DMSO as 1.0 mM stock solution. The marker of reactive oxygen species, H2DCFDA (Lumiprobe, Moscow, Russia), was dissolved in DMSO as 100.0 μM stock solution. After incubation, the cells were incubated with FBS-free culture medium containing the dye mixture of Hoechst 33342 (final concentration 1.0 μM) and LumiTracker Mito TMRE (final concentration 1.0 μM), or H2DCFDA dye taken alone (final concentration 1.0 μM), for 30 min at 37 °C in darkness. Fluorescence, at 420 nm (Hoechst 33342), at 510 nm (TMRE), and at 575 nm (H2DCFDA), of the test cultures (including controls) was analyzed immediately using a fluorescence microscope CKX 53 (Olympus, Tokyo, Japan). The TMRE fluorescence intensity was quantified using Fiji (ImageJ).

HBL-100/Dox cells [7] = assay: Hoechst 33342 / TMRE fluorescent microscopy, HBL-100/Dox; assay type: cell-based, human; conditions: Hoechst 33342, 16 h, IC50 values (MK 1.8 µM)
Description: as §6

## COc1cccc2c1C(=O)c1c(O)c3c(c(O)c1C2=O)C[C@@](O)(C(=O)CO)C[C@@H]3O[C@H]1C[C@H](N)[C@H](O)[C@H](C)O1 [Dox, doxorubicin, reference compound]
HEK293; HEK293, MTT, 72 h of treatment, read-out: IC50 Values (Mean ± SD)
  IC50: 400 ± 100 nM
HEK293; Table S1, HEK293, read-out: IC50 (mean ± SD)
  IC50: 440 ± 40 nM
MCF-7; MCF-7, MTT, 72 h of treatment, read-out: IC50 Values (Mean ± SD)
  IC50: 400 ± 100 nM
MCF-7; Table S1, MCF-7, read-out: IC50 (mean ± SD)
  IC50: 380 ± 90 nM
HCT116
  IC50: 1300 ± 300 nM
RD TE32; RD TE32, MTT, 72 h of treatment, read-out: IC50 Values (Mean ± SD)
  IC50: 1300 ± 100 nM
RD TE32; Table S1, RD TE32, read-out: IC50 (mean ± SD)
  IC50: 1270 ± 30 nM
MS; MS, MTT, 72 h of treatment, read-out: IC50 Values (Mean ± SD)
  IC50: 1300 ± 200 nM
MS; Table S1, MS, read-out: IC50 (mean ± SD)
  IC50: 1290 ± 160 nM
PC-3
  IC50: 12600 ± 200 nM
HEpG2; HEpG2, MTT, 72 h of treatment, read-out: IC50 Values (Mean ± SD)
  IC50: 1800 ± 300 nM
HEpG2; Table S1, HEpG2, read-out: IC50 (mean ± SD)
  IC50: 1780 ± 300 nM
HBL-100; HBL-100, MTT, 72 h of treatment, read-out: IC50 Values (Mean ± SD)
  IC50: 400 ± 100 nM
HBL-100; Table S1, HBL-100, read-out: IC50 (mean ± SD)
  IC50: 350 ± 30 nM
HBL-100/Dox; HBL-100, 72 h, read-out: IC50 Values (Mean ± SD)
  IC50: 29600 ± 900 nM
HBL-100/Dox; HBL-100, read-out: IC50 (mean ± SD)
  IC50: 29600 ± 940 nM
HBL-100/Dox cells [1]
  diminution of IC50 value of Dox in combination with verapamil: 37 fold
HBL-100 cells [2]; 12 h
  Cell cycle of HBL-100, S-phase: 48.19±0.09%
HBL-100 cells [2]; 13 h
  Cell cycle of HBL-100, S-phase: 46.86±0.22%
HBL-100 cells [2]; 14 h
  Cell cycle of HBL-100, S-phase: 48.25±0.51%
HBL-100 cells [2]; 15 h
  Cell cycle of HBL-100, S-phase: 57.27±0.14%
HBL-100 cells [2]; 16 h
  Cell cycle of HBL-100, S-phase: 61.28±2.01%
HBL-100 cells [2]; 17 h
  Cell cycle of HBL-100, S-phase: 56.17±1.64%
HBL-100 cells [2]; 18 h
  Cell cycle of HBL-100, S-phase: 55.42±0.92%
HBL-100 cells [2]; 24 h
  Cell cycle of HBL-100, S-phase: 76.69±0.75%
HBL-100 cells [2]; HBL-100 (parental) cells, 12-24 h, IC50
  effect on cell cycle progression: induced the S phase arrest
HBL-100/Dox cells [3]
  effect on cell cycle progression: induced the S phase arrest
HBL-100 cells [4]
  Dead cells: 1.80±0.31%
  Early apoptotic cells: 12.35 ± 0.42%
  Late apoptotic cells: 1.93±0.29%
  Viable cells: 83.89±0.82%
HBL-100/Dox cells [5]
  Dead cells: 0.84±0.24%
  Early apoptotic cells: 2.56 ± 0.36% and 2.56±0.37%
  Late apoptotic cells: 0.82±0.55%
  Viable cells: 95.74±1.10%
HBL-100 cells [6]
  number of cells with nuclear morphology changes: 25.2%
HBL-100/Dox cells [7]
  number of cells with nuclear morphology changes: 9.9%
